The results in this text go back to patent US10093656B2, “Fused-ring or tricyclic aryl pyrimidine compound used as kinase inhibitor” (NANJING SANHOME PHARMACEUTICAL CO., LTD, priority 2015, dated 2018).

One experiment concerns the target T1, EGFR d746-750/T790M (Homo sapiens, UniProt P00533, DEL746-750/T790M).
T1 construct: purchased Carna Biosciences (Japan)
The experiment is described as follows: EGFR d746-750/T790M enzyme HTRF inhibition assay. Format: biochemical. The settings on record: 40 μM ATP. Here is the method:
(§1) Enzyme: EGFR wild type, EGFR T790M/L858R, EGFR T790M and INSR were purchased from Life technology (Madison, Wis.), EGFR d746-750/T790M was purchased from Carna Biosciences (Japan).
(§2) HTRF Kit was purchased from Cis-Bio International which contained the Eu-labeled TK1 antibody, XL665 and biotin-labeled TK1 polypeptide substrates.
(§3) Detecting instrument: Envision (PerkinElmer).
(§4) The test compound was diluted 3-fold to obtain 10 doses of which the final concentration was from 300 nM to 0.015 nM.
EGFR d746-750/T790M Enzyme Reaction Mixture System:
0.025 nM EGFR d746-750/T790M, 1 μM biotin-TK1 peptide, 40 μM ATP enzyme buffer, a total of which was 10 μL. The reaction plate was white Proxiplate 384-Plus plate (PerkinElmer) and the mixture was reacted at 23° C. for 60 minutes.
(§5) Reaction Detection: 10 μL of detection reagent containing Antibody 2 nM and XL665 62.5 nM was added, and the reagent was incubated at 23° C. for 60 minutes. The plates were read by Envision.
(§6) The reading is converted to the suppression rate (%) by the following formula […]/(Max-Min)*100%. IC50 Data was measured by four-parameter curve fitting (Model 205 in XLFITS, IDBS).
Background: Time-resolved FRET reads energy transfer from a long-lived donor to a nearby acceptor.

The next experiment concerns A431 cells EGFR WT. Description: A431 cell viability assay (Cell Titer-Glo, 6 days). Type of experiment: cell-based, human. As to conditions: for IC50: Homo sapiens, A-431, 144 h, A431 cells, 6 days; for A431:NCI-H1975 (ratio): ratio of cell IC50 A431 to NCI-H1975. Here is the method: (§7) RPMI1640, fetal bovine serum, penicillin/streptomycin solution were purchased from Life Technology (Madison, Wis.). Cell Titer-Glo luminescent cell viability reagents were purchased from Promega (Madison, Wis.). A431 cell line and NCI-H1975 cell line were purchased from European Collection of Cell Cultures (ECACC). Plate Reader Instrument: Envision (PerkinElmer).
(§8) 384-Well plates, 300 of A431 cells and NCI-H1975 cells were inoculated per well, a volume of which was 45 μL. And the plates were incubated overnight in a CO2 incubator at 37° C. The test compound was diluted 3-fold to obtain 10 dose concentrations, the final concentrations of which were from 10 μM to 0.508 nM, two wells. The middle plates were filled with 49 μL of medium per well. 1 μL of compound in the gradient dilution compound plates was transferred to the middle plates and mixed well. And then 5 μL liquid in the middle plates was taken to the cell plates. The cells were incubated in a CO2 incubator for 6 days. After 6 days, 25 μL of detection reagents was added. And then the mixture was incubated at room temperature for 10 minutes and the plates were read by Envision.
(§9) The reading is converted to the suppression rate by the following formula (%) (Max-Sample)/(Max-Min)*100%. IC50 Data was measured by Four-parameter curve fitting (Model 205 in XLFIT5, IDBS).

In the next experiment the target is T2, EGFR wild type (Homo sapiens, UniProt P00533).
T2 construct: purchased Life technology (Madison, Wis.)
Description: Wild-type EGFR enzyme HTRF inhibition assay. Type of experiment: biochemical. The settings on record: 25 μM ATP, read-out: EGFR WT IC50. The method, then:
as §1, §2, §3, §4
Wild-Type EGFR Enzyme Reaction Mixture System:
0.05 nM Wild-type EGFR, 1 μM biotin-TK1 peptide, 25 μM ATP enzyme buffer, a total of which was 10 μL. The reaction plate was white Proxiplate 384-Plus plate (PerkinElmer) and the mixture was reacted at 23° C. for 60 minutes.
as §5, §6

In the next experiment the target is T3, EGFR T790M/L858R (Homo sapiens, UniProt P00533, L858R/T790M).
T3 construct: purchased Life technology (Madison, Wis.)
Description: EGFR T790M/L858R enzyme HTRF inhibition assay. Type of experiment: biochemical. As to conditions: 20 μM ATP, read-out: EGFR L858R/T79M IC50. Here is the method:
as §1, §2, §3, §4
EGFR T790M/L858R Enzyme Reaction Mixture System:
0.04 nM EGFR T790M/L858R, 1 μM biotin-TK1 peptide, 20 μM ATP enzyme buffer, a total of which was 10 μL. The reaction plate was white Proxiplate 384-Plus plate (PerkinElmer) and the mixture was reacted at 23° C. for 60 minutes.
as §5, §6

The subject of experiment [1] is NCI-H1975 cells EGFR L858R/T790M. Description: NCI-H1975 cell viability assay (Cell Titer-Glo, 6 days). Type of experiment: cell-based. The settings on record: Homo sapiens, 144 h. Here is the method:
as §7, §8, §9
For orientation: In ATP-based viability assays light output follows the ATP content of the culture.

Molecules are shown by their SMILES.

T3 sequence (P00533 25-1210 T790M/L858R): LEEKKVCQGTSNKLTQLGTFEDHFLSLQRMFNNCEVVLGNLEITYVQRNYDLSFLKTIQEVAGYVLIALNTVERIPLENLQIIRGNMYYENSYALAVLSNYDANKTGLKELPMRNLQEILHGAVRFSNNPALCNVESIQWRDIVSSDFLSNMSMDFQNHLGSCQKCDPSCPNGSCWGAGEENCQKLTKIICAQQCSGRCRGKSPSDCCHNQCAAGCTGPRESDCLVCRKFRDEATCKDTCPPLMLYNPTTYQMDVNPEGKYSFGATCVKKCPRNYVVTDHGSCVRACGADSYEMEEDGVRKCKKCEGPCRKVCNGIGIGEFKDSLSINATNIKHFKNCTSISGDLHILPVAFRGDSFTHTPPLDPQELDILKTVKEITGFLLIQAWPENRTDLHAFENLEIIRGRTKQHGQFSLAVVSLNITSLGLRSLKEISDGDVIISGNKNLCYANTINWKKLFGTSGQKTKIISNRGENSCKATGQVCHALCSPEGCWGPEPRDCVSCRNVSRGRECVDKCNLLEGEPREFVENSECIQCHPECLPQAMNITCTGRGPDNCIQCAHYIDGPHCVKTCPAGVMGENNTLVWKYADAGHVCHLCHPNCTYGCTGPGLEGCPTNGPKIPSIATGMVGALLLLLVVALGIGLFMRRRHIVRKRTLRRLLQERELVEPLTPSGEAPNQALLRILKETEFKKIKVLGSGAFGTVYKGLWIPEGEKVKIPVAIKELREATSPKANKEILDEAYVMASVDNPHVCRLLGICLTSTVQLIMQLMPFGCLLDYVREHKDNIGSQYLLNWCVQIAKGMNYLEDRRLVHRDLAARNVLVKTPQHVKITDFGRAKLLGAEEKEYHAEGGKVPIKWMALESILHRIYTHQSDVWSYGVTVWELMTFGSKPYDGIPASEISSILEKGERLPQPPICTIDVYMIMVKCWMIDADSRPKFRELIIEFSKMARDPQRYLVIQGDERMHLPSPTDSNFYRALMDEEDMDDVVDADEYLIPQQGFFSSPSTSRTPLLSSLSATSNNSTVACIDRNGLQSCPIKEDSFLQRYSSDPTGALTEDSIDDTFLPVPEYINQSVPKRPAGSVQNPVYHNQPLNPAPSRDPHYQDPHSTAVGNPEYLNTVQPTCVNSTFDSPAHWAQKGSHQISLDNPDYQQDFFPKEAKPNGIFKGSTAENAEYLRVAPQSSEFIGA
T2 sequence (P00533 25-1210): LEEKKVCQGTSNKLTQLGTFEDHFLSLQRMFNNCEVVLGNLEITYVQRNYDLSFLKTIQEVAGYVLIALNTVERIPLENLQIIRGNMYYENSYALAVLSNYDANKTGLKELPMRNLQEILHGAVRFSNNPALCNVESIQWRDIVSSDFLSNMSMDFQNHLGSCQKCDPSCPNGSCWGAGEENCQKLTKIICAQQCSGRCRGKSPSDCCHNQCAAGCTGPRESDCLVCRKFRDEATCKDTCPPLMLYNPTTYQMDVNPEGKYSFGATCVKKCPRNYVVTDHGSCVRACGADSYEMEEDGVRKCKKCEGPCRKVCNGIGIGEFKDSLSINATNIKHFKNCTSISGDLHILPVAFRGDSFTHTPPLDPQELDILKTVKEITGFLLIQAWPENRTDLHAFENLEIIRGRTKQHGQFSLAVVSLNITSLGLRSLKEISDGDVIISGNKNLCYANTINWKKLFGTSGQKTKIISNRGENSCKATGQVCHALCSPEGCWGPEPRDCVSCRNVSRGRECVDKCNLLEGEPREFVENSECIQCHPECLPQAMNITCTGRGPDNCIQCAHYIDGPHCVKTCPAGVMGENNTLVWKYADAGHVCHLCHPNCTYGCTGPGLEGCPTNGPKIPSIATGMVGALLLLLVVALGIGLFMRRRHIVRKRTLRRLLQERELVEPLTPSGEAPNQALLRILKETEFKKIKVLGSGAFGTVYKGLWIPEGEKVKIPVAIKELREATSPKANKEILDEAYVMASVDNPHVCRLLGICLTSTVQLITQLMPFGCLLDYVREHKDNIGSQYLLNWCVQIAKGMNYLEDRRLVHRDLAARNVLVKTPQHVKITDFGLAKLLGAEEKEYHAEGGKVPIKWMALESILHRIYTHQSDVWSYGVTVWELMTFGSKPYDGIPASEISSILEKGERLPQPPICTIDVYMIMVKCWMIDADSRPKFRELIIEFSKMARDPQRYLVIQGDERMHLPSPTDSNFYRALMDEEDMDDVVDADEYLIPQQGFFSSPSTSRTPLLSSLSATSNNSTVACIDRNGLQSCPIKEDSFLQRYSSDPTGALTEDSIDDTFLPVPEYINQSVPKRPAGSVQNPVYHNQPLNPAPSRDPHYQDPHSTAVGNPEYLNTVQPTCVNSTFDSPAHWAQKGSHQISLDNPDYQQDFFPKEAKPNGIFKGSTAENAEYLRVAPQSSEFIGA
T1 sequence (P00533 with tags, fused parts or gaps DEL746-750/T790M limits assumed): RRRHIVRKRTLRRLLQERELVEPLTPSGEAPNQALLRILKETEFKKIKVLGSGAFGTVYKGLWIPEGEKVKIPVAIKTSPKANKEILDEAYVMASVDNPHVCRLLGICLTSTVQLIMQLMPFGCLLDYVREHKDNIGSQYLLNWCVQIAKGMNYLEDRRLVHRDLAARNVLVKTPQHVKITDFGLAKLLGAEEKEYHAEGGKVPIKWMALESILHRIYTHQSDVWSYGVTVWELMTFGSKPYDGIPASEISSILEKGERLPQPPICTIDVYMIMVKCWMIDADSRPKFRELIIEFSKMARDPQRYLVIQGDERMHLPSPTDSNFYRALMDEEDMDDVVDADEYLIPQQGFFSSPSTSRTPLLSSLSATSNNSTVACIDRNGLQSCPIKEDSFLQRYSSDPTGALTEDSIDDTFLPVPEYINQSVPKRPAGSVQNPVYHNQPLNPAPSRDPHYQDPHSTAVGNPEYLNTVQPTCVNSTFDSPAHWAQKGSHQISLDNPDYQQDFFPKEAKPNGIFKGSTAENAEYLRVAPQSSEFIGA

On to `C=CC(=O)Nc1cc(Nc2nccc(-c3c4n(c5ccccc35)CCC4)n2)c(OC)cc1N(C)CCCN(C)C` [Embodiment 7, N-(5-((4-(2,3-Dihydro-1H-pyrrolo[1,2-a]indol-9-yl)pyrimidin-2-yl)amino)-2-((3-(dimethylamino)propyl)(methyl)amino)-4-methoxyphenyl)acrylamide], for which the IC50 turned out to be 2.59 nM against EGFR d746-750/T790M; 3720 nM in the experiment on A431 cells EGFR WT; 33 nM on EGFR wild type; 2.19 nM at EGFR T790M/L858R; 496 nM in experiment [1]. Moreover, the “A431:NCI-H1975 (ratio)” value with A431 cells EGFR WT is on record as 7.5.

As to `C=CC(=O)Nc1cc(Nc2nccc(-c3c4n(c5ccccc35)CCC4)n2)c(OC)cc1N1CC(N(C)C)C1` [Embodiment 2, N-(5-((4-(2,3-Dihydro-1H-pyrrolo[1,2-a]indol-9-yl)pyrimidin-2-yl)amino)-2-(3-(dimethylamino)azetidin-1-yl)-4-methoxyphenyl)acrylamide], the IC50 is 0.67 nM on EGFR d746-750/T790M; > 10000 nM in the experiment on A431 cells EGFR WT; 4.31 nM on EGFR wild type; 0.55 nM on EGFR T790M/L858R; 4740 nM in experiment [1]. The “A431:NCI-H1975 (ratio)” value in the experiment on A431 cells EGFR WT is given as >2.1.

Take `C=CC(=O)Nc1cc(Nc2nccc(-c3c4n(c5ccccc35)CCOC4)n2)c(OC)cc1N(CC)CCN(C)C` [Embodiment 19, N-(5-((4-(3,4-Dihydro-1H-[1,4]oxazino[4,3-a]indol-10-yl)pyrimidin-2-yl)amino)-2-((2-(dimethylamino)ethyl)(ethyl)amino)-4-methoxyphenyl)acrylamide]: the IC50 was found to be 0.26 nM at EGFR d746-750/T790M; 965 nM with A431 cells EGFR WT; 2.7 nM on EGFR wild type; 0.3 nM at EGFR T790M/L858R; 29 nM in experiment [1]. In the experiment on A431 cells EGFR WT, the “A431:NCI-H1975 (ratio)” value was found to be 33.

On to `C=CC(=O)Nc1cc(Nc2nccc(-c3c4n(c5ccccc35)CCC4)n2)c(OC)cc1N(C)CCN1CCCC1` [Embodiment 5], for which the IC50 against EGFR d746-750/T790M came to 0.97 nM; in the experiment on A431 cells EGFR WT, 2670 nM; on EGFR wild type, 7.28 nM; on EGFR T790M/L858R, 0.93 nM; in experiment [1], 19 nM. Moreover, in the experiment on A431 cells EGFR WT, the “A431:NCI-H1975 (ratio)” value is listed as 140.6.

As to `C=CC(=O)Nc1cc(Nc2nccc(-c3c4n(c5ccccc35)CCCC4)n2)c(OC)cc1N(C)CCN(C)C` [Embodiment 15, N-(2-((2-(Dimethylamino)ethyl)(methyl)amino)-4-methoxy-5-((4-(6,7,8,9-tetrahydropyrido[1,2-a]indol-10-yl)pyrimidin-2-yl)amino)phenyl)acrylamide], the IC50 against EGFR d746-750/T790M worked out at 0.37 nM; with A431 cells EGFR WT, 230 nM; at EGFR wild type, 1.03 nM; at EGFR T790M/L858R, 0.36 nM; in experiment [1], 15 nM. Also, the “A431:NCI-H1975 (ratio)” value with A431 cells EGFR WT stood at 15.3.

As to `C=CC(=O)Nc1cc(Nc2nccc(-c3c4n(c5ccccc35)CCC4=O)n2)c(OC)cc1N(C)CCN(C)C` [Embodiment 12, N-(2-((2-(Dimethylamino)ethyl)(methyl)amino)-4-methoxy-5-((4-(1-oxo-2,3-dihydro-1H-pyrrolo[1,2-a]indol-9-yl)pyrimidin-2-yl)amino)phenyl)acrylamide], the IC50 at EGFR d746-750/T790M is 0.31 nM; in the experiment on A431 cells EGFR WT, 369 nM; at EGFR wild type it was 0.43 nM; on EGFR T790M/L858R it was 0.33 nM; in experiment [1], 4.8 nM. Further, in the experiment with A431 cells EGFR WT, the “A431:NCI-H1975 (ratio)” value came to 76.9.

Turning to `C=CC(=O)Nc1cc(Nc2nccc(-c3c4n(c5ccccc35)CCC4)n2)c(OC)cc1CCCN(C)C` [Embodiment 10], the IC50 on EGFR d746-750/T790M turned out to be 1.89 nM; in the experiment on A431 cells EGFR WT it was 2260 nM; at EGFR wild type it was 27.5 nM; at EGFR T790M/L858R, 2.19 nM; in experiment [1], 283 nM. Further, the “A431:NCI-H1975 (ratio)” value in the experiment on A431 cells EGFR WT worked out at 8.0.

As for `C=CC(=O)Nc1cc(Nc2nccc(-c3c4n(c5ccccc35)CCC4)n2)c(OC)cc1N1CCC(N(C)C)C1` (stereo not drawn) [Embodiment 6, N-(5-((4-(2,3-Dihydro-1H-pyrrolo[1,2-a]indol-9-yl)pyrimidin-2-yl)amino)-2-(3-(dimethylamino)pyrrolidin-1-yl)-4-methoxyphenyl)acrylamide], the IC50 is 3.29 nM on EGFR d746-750/T790M; > 10000 nM in the experiment on A431 cells EGFR WT; 20.3 nM on EGFR wild type; 3.07 nM on EGFR T790M/L858R; 4330 nM in experiment [1]. Moreover, the “A431:NCI-H1975 (ratio)” value in the experiment on A431 cells EGFR WT was >2.1.

For the compound `C=CC(=O)Nc1cc(Nc2nccc(-c3c4n(c5ccccc35)CCOC4)n2)c(OC)cc1N(C)C(C)CN(C)C` (stereo not drawn) [Embodiment 20, N-(5-((4-(3,4-Dihydro-1H-[1,4]oxazino[4,3-a]indol-10-yl)pyrimidin-2-yl)amino)-2-((1-(dimethylamino)propan-2-yl)(methyl)amino)-4-methoxyphenyl)acrylamide], the IC50 was 0.17 nM on EGFR d746-750/T790M; 164 nM in the experiment on A431 cells EGFR WT; 0.66 nM on EGFR wild type; 0.2 nM on EGFR T790M/L858R; 4 nM in experiment [1]. In addition, in the experiment with A431 cells EGFR WT, the “A431:NCI-H1975 (ratio)” value is recorded as 41.0.

With `C=CC(=O)Nc1cc(Nc2ncc(F)c(-c3c4n(c5ccccc35)CCOC4)n2)c(OC)cc1N(C)CCNC` [Embodiment 31, N-(5-((4-(3,4-Dihydro-1H-[1,4]oxazino[4,3-a]indol-10-yl)-5-fluoropyrimidin-2-yl)amino)-4-methoxy-2-(methyl(2-(methylamino)ethyl)amino)phenyl)acrylamide], the IC50 at EGFR d746-750/T790M was 0.3 nM; in the experiment on A431 cells EGFR WT it was 1290 nM; at EGFR wild type, 2 nM; at EGFR T790M/L858R, 0.2 nM; in experiment [1] it was 96 nM. In addition, the “A431:NCI-H1975 (ratio)” value in the experiment with A431 cells EGFR WT was 13.4.

With `C=CC(=O)Nc1cc(Nc2nccc(-c3c4n(c5ccccc35)CCC4)n2)c(OC)cc1N1CCN(C)CC1` [Embodiment 4, 2-(2-Methoxy-4-(N-methyl)piperazine-5-acrylamidoanilino)-4-(3-(1,2,3-dihydropyrrolo[1,2-a]indol))pyrimidine], the IC50 came out at 2.7 nM at EGFR d746-750/T790M; 4620 nM in the experiment on A431 cells EGFR WT; 60 nM on EGFR wild type; 3.25 nM on EGFR T790M/L858R; 434 nM in experiment [1]. For the same compound, in the experiment on A431 cells EGFR WT, the “A431:NCI-H1975 (ratio)” value is on record as 10.6.

For the compound `C=CC(=O)Nc1cc(Nc2ncc(F)c(-c3c4n(c5c(OC)cccc35)CCOC4)n2)c(OC)cc1N(C)CCN(C)C` [Embodiment 35, N-(2-((2-(Dimethylamino)ethyl)(methyl)amino)-5-((5-fluoro-4-(6-methoxy-3,4-dihydro-1H-[1,4]oxazino[4,3-a]indol-10-yl)pyrimidin-2-yl)amino)-4-methoxyphenyl)acrylamide], the IC50 against EGFR d746-750/T790M was 0.6 nM; with A431 cells EGFR WT, 971 nM; at EGFR wild type it was 1.5 nM; on EGFR T790M/L858R, 1.2 nM; in experiment [1] it was 107 nM. Further, in the experiment with A431 cells EGFR WT, the “A431:NCI-H1975 (ratio)” value worked out at 9.1.

As to `C=CC(=O)Nc1cc(Nc2nccc(-c3c4n(c5ccccc35)CCOC4)n2)c(OCC)cc1N(C)CCN(C)C` [Embodiment 28, N-(5-((4-(3,4-Dihydro-1H-[1,4]oxazino[4,3-a]indol-10-yl)pyrimidin-2-yl)amino)-2-((2-(dimethylamino)ethyl)(methyl)amino)-4-ethoxyphenyl)acrylamide], the IC50 against EGFR d746-750/T790M stood at 0.2 nM; in the experiment on A431 cells EGFR WT, 517 nM; on EGFR wild type, 1.5 nM; at EGFR T790M/L858R, 0.2 nM; in experiment [1], 11 nM. In the experiment on A431 cells EGFR WT, the “A431:NCI-H1975 (ratio)” value came out at 47.
